Source: patent US11771738B2 (Zoetis Services LLC, priority 2018, dated 2023)
Read-outs that look alike come from different tables or passages of the source.

Assays:
Assay type in all cases: cell-based
[1] = system: microfilariae of Dirofilaria immitis; assay: Dirofilaria immitis, Microfilaria (DiMf) In Vitro Assay; conditions: Dirofilaria immitis, 72 h, read-out: DiMf MED, Minimum Effective Dose, D. immitis microfilariae motility, in vitro
[2] = system: D. immitis L4 larvae; assay: Dirofilaria immitis, L4 Stage (DiL4) In Vitro Assay; conditions: for minimal effective concentration: Dirofilaria immitis, 72 h, read-out: DiL4 MED, Minimum Effective Dose, D. immitis L4 larvae motility, in vitro; for DiMf/DiL4: larval stage selectivity, ratio of DiMf MED to DiL4 MED
[3] = system: third stage larvae of Haemonchus contortus; assay: Haemonchus contortus, Larvae Stage 3 (HcL3) In Vitro Assay; conditions: Haemonchus contortus, 96 h
[4] = read-out: HcL3 MED, Minimum Effective Dose, H. contortus third stage larvae, approximately 96 hours
[5] = read-out: HcL3 MED, Haemonchus contortus third stage larvae in vitro, class mark appended to the Ex # in Table 3
[6] = read-out: HcL3 MED, approximately 96 hours incubation, multiple-resistant field isolate

Structure (SMILES)	minimal effective concentration [1] [µM]	minimal effective concentration [2] [µM]	DiMf/DiL4 [2]	minimal effective concentration [3, 4] [µM]	minimal effective concentration [3, 5] [µM]	minimal effective concentration ([3]; read-out: HcL3 MED (symbol after Ex#), approximately 96 hours incubation, multiple-resistant field isolate) [µM]	minimal effective concentration [3, 6] [µM]
COc1ccncc1Cc1ccc(C[C@H]2OC(=O)[C@H](CC(C)C)N(C)C(=O)[C@@H](C)OC(=O)[C@H](CC(C)C)N(C)C(=O)[C@@H](Cc3ccc(Cc4cnccc4OC)cc3)OC(=O)[C@H](CC(C)C)N(C)C(=O)[C@@H](C)OC(=O)[C@H](CC(C)C)N(C)C2=O)cc1 [Example 3-282, (3S,6R,9S,12R,15S,18R,21S,24R)-3,9,15,21-tetraisobutyl-6,18-bis(4-((4-methoxypyridin-3-yl)methyl)benzyl)-4,10,12,16,22,24-hexamethyl-1,7,13,19-tetraoxa-4,10,16,22-tetraazacyclotetracosan-2,5,8,11,14,17,20,23-octaone]	0.005	0.001	5	30			
COc1cncc(Cc2ccc(C[C@H]3OC(=O)[C@H](CC(C)C)N(C)C(=O)[C@@H](C)OC(=O)[C@H](CC(C)C)N(C)C(=O)[C@@H](Cc4ccc(Cc5cncc(OC)n5)cc4)OC(=O)[C@H](CC(C)C)N(C)C(=O)[C@@H](C)OC(=O)[C@H](CC(C)C)N(C)C3=O)cc2)n1 [Example 3-218, (3S,6R,9S,12R,15S,18R,21S,24R)-3,9,15,21-tetraisobutyl-6,18-bis(4-((6-methoxypyrazin-2-yl)methyl)benzyl)-4,10,12,16,22,24-hexamethyl-1,7,13,19-tetraoxa-4,10,16,22-tetraazacyclotetracosan-2,5,8,11,14,17,20,23-octaone]	0.01	0.0008	12.5	> 23			
COC(c1ccc(C[C@H]2OC(=O)[C@H](CC(C)C)N(C)C(=O)[C@@H](C)OC(=O)[C@H](CC(C)C)N(C)C(=O)[C@@H](Cc3ccc(C(OC)c4ccc(O)nc4)cc3)OC(=O)[C@H](CC(C)C)N(C)C(=O)[C@@H](C)OC(=O)[C@H](CC(C)C)N(C)C2=O)cc1)c1ccc(O)nc1 (stereo partly drawn) [Example 3-259, (3S,6R,9S,12R,15S,18R,21S,24R)-6,18-bis(4-((6-hydroxypyridin-3-yl)(methoxy)methyl)benzyl)-3,9,15,21-tetraisobutyl-4,10,12,16,22,24-hexamethyl-1,7,13,19-tetraoxa-4,10,16,22-tetraazacyclotetracosan-2,5,8,11,14,17,20,23-octaone]	0.01	0.0005	20	3.3	1 to 3.3		
CC(C)C[C@H]1C(=O)O[C@H](Cc2ccc(Cc3cnsc3)cc2)C(=O)N(C)[C@@H](CC(C)C)C(=O)O[C@H](C)C(=O)N(C)[C@@H](CC(C)C)C(=O)O[C@H](Cc2ccc(Cc3cnsc3)cc2)C(=O)N(C)[C@@H](CC(C)C)C(=O)O[C@H](C)C(=O)N1C [Example 3-254, (3S,6R,9S,12R,15S,18R,21S,24R)-3,9,15,21-tetraisobutyl-6,18-bis(4-(isothiazol-4-ylmethyl)benzyl)-4,10,12,16,22,24-hexamethyl-1,7,13,19-tetraoxa-4,10,16,22-tetraazacyclotetracosan-2,5,8,11,14,17,20,23-octaone]	0.003	0.001	3	10			
COC(c1ccc(C[C@H]2OC(=O)[C@H](CC(C)C)N(C)C(=O)[C@@H](C)OC(=O)[C@H](CC(C)C)N(C)C(=O)[C@@H](Cc3ccccc3)OC(=O)[C@H](CC(C)C)N(C)C(=O)[C@@H](C)OC(=O)[C@H](CC(C)C)N(C)C2=O)cc1)c1ccc(F)c(F)c1 (stereo partly drawn) [Example 2-37, (3S,6R,9S,12R,15S,18R,21S,24R)-6-benzyl-18-(4-((3,4-difluorophenyl)(methoxy)methyl)benzyl)-3,9,15,21-tetraisobutyl-4,10,12,16,22,24-hexamethyl-1,7,13,19-tetraoxa-4,10,16,22-tetraazacyclotetracosan-2,5,8,11,14,17,20,23-octaone]	0.02	0.001	20	3.3		1 to 3.3	
CC(C)C[C@H]1C(=O)O[C@H](Cc2ccc([C@H](F)c3nccs3)cc2)C(=O)N(C)[C@@H](CC(C)C)C(=O)O[C@H](C)C(=O)N(C)[C@@H](CC(C)C)C(=O)O[C@H](Cc2ccc([C@@H](F)c3nccs3)cc2)C(=O)N(C)[C@@H](CC(C)C)C(=O)O[C@H](C)C(=O)N1C [Example 3-285, (3S,6R,9S,12R,15S,18R,21S,24R)-6-(4-((R)-fluoro(thiazol-2-yl)methyl)benzyl)-18-(4-((S)-fluoro(thiazol-2-yl)methyl)benzyl)-3,9,15,21-tetraisobutyl-4,10,12,16,22,24-hexamethyl-1,7,13,19-tetraoxa-4,10,16,22-tetraazacyclotetracosan-2,5,8,11,14,17,20,23-octaone]	0.003	0.0005	6	5.7			
CC(C)C[C@H]1C(=O)O[C@H](Cc2ccc(Cc3cnccc3C(F)(F)F)cc2)C(=O)N(C)[C@@H](CC(C)C)C(=O)O[C@H](C)C(=O)N(C)[C@@H](CC(C)C)C(=O)O[C@H](Cc2ccc(Cc3cnccc3C(F)(F)F)cc2)C(=O)N(C)[C@@H](CC(C)C)C(=O)O[C@H](C)C(=O)N1C [Example 3-333, (3S,6R,9S,12R,15S,18R,21S,24R)-3,9,15,21-tetraisobutyl-4,6,10,16,18,22-hexamethyl-12,24-bis(4-((4-(trifluoromethyl)pyridin-3-yl)methyl)benzyl)-1,7,13,19-tetraoxa-4,10,16,22-tetraazacyclotetracosan-2,5,8,11,14,17,20,23-octaone]	0.003	0.0002	17		< 1		≤ 1
COc1cnc(C(C)(F)c2ccc(C[C@H]3OC(=O)[C@H](CC(C)C)N(C)C(=O)[C@@H](C)OC(=O)[C@H](CC(C)C)N(C)C(=O)[C@@H](Cc4ccc(C(C)(F)c5cnc(OC)cn5)cc4)OC(=O)[C@H](CC(C)C)N(C)C(=O)[C@@H](C)OC(=O)[C@H](CC(C)C)N(C)C3=O)cc2)cn1 (stereo partly drawn) [Example 3-252, (3S,6R,9S,12R,15S,18R,21S,24R)-6,18-bis(4-(1-fluoro-1-(5-methoxypyrazin-2-yl)ethyl)benzyl)-3,9,15,21-tetraisobutyl-4,10,12,16,22,24-hexamethyl-1,7,13,19-tetraoxa-4,10,16,22-tetraazacyclotetracosan-2,5,8,11,14,17,20,23-octaone]	0.02	0.0007	28.6	> 42			
CC(C)C[C@H]1C(=O)O[C@H](Cc2ccc([C@@H](C)c3nccs3)cc2)C(=O)N(C)[C@@H](CC(C)C)C(=O)O[C@H](C)C(=O)N(C)[C@@H](CC(C)C)C(=O)O[C@H](Cc2ccc([C@@H](C)c3nccs3)cc2)C(=O)N(C)[C@@H](CC(C)C)C(=O)O[C@H](C)C(=O)N1C [Example 3-291, (3S,6R,9S,12R,15S,18R,21S,24R)-3,9,15,21-tetraisobutyl-4,6,10,16,18,22-hexamethyl-12,24-bis(4-((R)-1-(thiazol-2-yl)ethyl)benzyl)-1,7,13,19-tetraoxa-4,10,16,22-tetraazacyclotetracosan-2,5,8,11,14,17,20,23-octaone]	0.0003	0.0001	3	0.3	< 1		≤ 1
Cc1ccc(Cc2ccc(C[C@H]3OC(=O)[C@H](CC(C)C)N(C)C(=O)[C@@H](C)OC(=O)[C@H](CC(C)C)N(C)C(=O)[C@@H](Cc4ccc(Cc5ccc(C)nc5C)cc4)OC(=O)[C@H](CC(C)C)N(C)C(=O)[C@@H](C)OC(=O)[C@H](CC(C)C)N(C)C3=O)cc2)c(C)n1 [Example 3-240, (3S,6R,9S,12R,15S,18R,21S,24R)-6,18-bis(4-((2,6-dimethylpyridin-3-yl)methyl)benzyl)-3,9,15,21-tetraisobutyl-4,10,12,16,22,24-hexamethyl-1,7,13,19-tetraoxa-4,10,16,22-tetraazacyclotetracosan-2,5,8,11,14,17,20,23-octaone]	0.02	0.001	20	5.7			
COc1cccc(Cc2ccc(C[C@H]3OC(=O)[C@H](CC(C)C)N(C)C(=O)[C@@H](C)OC(=O)[C@H](CC(C)C)N(C)C(=O)[C@@H](Cc4ccc(Cc5cccc(OC)c5)cc4)OC(=O)[C@H](CC(C)C)N(C)C(=O)[C@@H](C)OC(=O)[C@H](CC(C)C)N(C)C3=O)cc2)c1 [Example 1-5, (3S,6R,9S,12R,15S,18R,21S,24R)-3,9,15,21-tetraisobutyl-6,18-bis(4-(3-methoxybenzyl)benzyl)-4,10,12,16,22,24-hexamethyl-1,7,13,19-tetraoxa-4,10,16,22-tetraazacyclotetracosan-2,5,8,11,14,17,20,23-octaone]	0.5	0.001	500	> 100			
CC(C)C[C@H]1C(=O)O[C@H](Cc2ccc(Cc3cccnc3N(C)C)cc2)C(=O)N(C)[C@@H](CC(C)C)C(=O)O[C@H](C)C(=O)N(C)[C@@H](CC(C)C)C(=O)O[C@H](Cc2ccc(Cc3cccnc3N(C)C)cc2)C(=O)N(C)[C@@H](CC(C)C)C(=O)O[C@H](C)C(=O)N1C [Example 3-176, (3S,6R,9S,12R,15S,18R,21S,24R)-6,18-bis(4-((2-(dimethylamino)pyridin-3-yl)methyl)benzyl)-3,9,15,21-tetraisobutyl-4,10,12,16,22,24-hexamethyl-1,7,13,19-tetraoxa-4,10,16,22-tetraazacyclotetracosan-2,5,8,11,14,17,20,23-octaone]	0.004	0.0003	13.3	1.2	1 to 3.3		
